{
  "source": "patent US20240207265A1",
  "about": "“TREATMENT OF CNS DISEASES WITH sGC STIMULATORS” (Tisento Therapeutics Inc., priority 2021, published 2024)",
  "assay": "Non-human primate CSF pharmacokinetics (Study B), cisterna magna versus lumbar sampling",
  "format": "in vivo, cynomolgus monkeys",
  "experimental": "The objective of this study was to investigate the pharmacokinetics of Compound I-14 after administration of a single […] bolus or oral gavage dose to cynomolgus monkeys on Day 1 and to evaluate differences in pharmacokinetic values when comparing CSF collected at the cisterna magna (as in Example 10A) versus lumbar locations.\nSingle doses of Compound I-14 were administered intravenously as a bolus injection of a solution at 0.15 mg/kg and orally by gavage as a suspension at 0.5 mg/kg to a group of four female cynomolgus monkeys in a crossover design. Plasma samples were collected at 0.25 (15 min), 0.5 (30 min), 1, 2, 3, 6, 8, 12, 24, 32, and 48 h following the IV and PO doses. CSF samples were collected at 3 and 24 h for all animals from the cisterna magna in groups 1 and 2 and the lumbar from groups 3 and 4. Sample extracts were prepared by protein precipitation and Compound I-14 concentrations were measured using LC-MS/MS. Pharmacokinetic parameters were calculated.",
  "data": [
    {"smiles": "Cc1cc(F)c(Cc2nc(-c3ncc(F)c(O)n3)cn3ccnc23)cc1F", "note": "[Compound I-14, 5-fluoro-2-(8-(2,5-difluoro-4-methylbenzyl)imidazo[1,2-a]pyrazin-6-yl)pyrimidin-4-ol]", "values": [
      {"measurement": "geomean ratio of CSF concentration to unbound concentration in plasma", "setting": "3 hours, IV dosing, cisterna magna sampling", "result": "C (2<Kp,uu≤3=C)"},
      {"measurement": "geomean ratio of CSF concentration to unbound concentration in plasma", "setting": "3 hours, IV dosing, lumbar sampling", "result": "C (2<Kp,uu≤3=C)"},
      {"measurement": "geomean ratio of CSF concentration to unbound concentration in plasma", "setting": "3 hours, oral dosing, cisterna magna sampling", "result": "C (2<Kp,uu≤3=C)"},
      {"measurement": "geomean ratio of CSF concentration to unbound concentration in plasma", "setting": "3 hours, oral dosing, lumbar sampling", "result": "C (2<Kp,uu≤3=C)"},
      {"measurement": "geomean ratio of CSF concentration to unbound concentration in plasma", "setting": "24 hours, IV dosing, cisterna magna sampling", "result": "B (1<Kp,uu≤2=B)"},
      {"measurement": "geomean ratio of CSF concentration to unbound concentration in plasma", "setting": "24 hours, IV dosing, lumbar sampling", "result": "B (1<Kp,uu≤2=B)"},
      {"measurement": "geomean ratio of CSF concentration to unbound concentration in plasma", "setting": "24 hours, oral dosing, cisterna magna sampling", "result": "C (2<Kp,uu≤3=C)"},
      {"measurement": "geomean ratio of CSF concentration to unbound concentration in plasma", "setting": "24 hours, oral dosing, lumbar sampling", "result": "C (2<Kp,uu≤3=C)"}
    ]}
  ]
}
